This is an account of results in patent publication EP0145177A2, “Chemotherapeutic agents based on rhizoxin” (priority 1983, dated 1985).

Data set [1] relates to ascites tumor MH-134 cells due to the cancer of the liver. The data set can be described thus: Antitumor activity against ascites tumor MH-134 in mice (Test Example 1). Type of data set: in vivo, C3H/He mice. The note with it: for Average life span: once a day for 10 days from 24 hours after inoculation, control 17.2 days; for T/C (%): once a day for 10 days, ratio of average life span, treated/control x 100. As for the experimental part: 1 x 10^6 of ascites tumor MH-134 cells due to the cancer of the liver were intraperitoneally inoculated into C3H/He mice (8 weeks old, each group 6 mice). Rhizoxin was dissolved with the addition of a small quantity of ethyl alcohol (not more than 1 volume percent on the basis of the total volume of the final solution), and further dissolved in a 0.85 X aqueous physiological sodium chloride solution containing 0.05 % of Tween 20. This solution was aseptically filtered, and 24 hours after the tumor inoculation, the solution was intraperitoneally administered to the mice continually for 10 days at a rate of 0.2 ml/mouse once a day. The antitumor activity of Rhizoxin was evaluated on the basis of the ratio (T/C) x 100 wherein T is the average life span of the Rhizoxin administered groups and C is the average life span of the control group.

A further data set deals with Leukemia L-1210 cells. Kind of data set: Antitumor activity against leukemia L-1210 in mice (Test Example 2). It counts as in vivo, CDF1 mice. The note with it: daily for 4 days; for ILS (%): increase in life span over control. As for the experimental part: Leukemia L-1210 cells (1 x 10^5 cells) were intraperitoneally inoculated into CDF1 mice. Intraperitoneal administration of Rhizoxin was started 24 hours after the tumor inoculation and continued daily for 4 days. The result is shown in Table 2 in terms of a percentage of an increase in the life span of the treated mice over that of the control mice (ILS).

In the next data set the test system is B-16 melanoma. Kind of data set: Tumor growth inhibition of B-16 melanoma in mice (Test Example 3). The note with it: daily for 4 days, based on tumor weight from tumor diameter. Type of data set: in vivo, BDF1 mice. The protocol: Tumor fragments of B-16 melanoma were subcutaneously inoculated into BDF1 mice. Intraperitoneal administration of Rhizoxin was begun 24 hours after the tumor inoculation and continued daily for 4 days.
The-result is shown in Table 3 in terms of a percentage of tumor growth inhibition based on the tumor weight which can be obtained from the measurement of the tumor diameter.

Another data set deals with leukemia P-388 cells. Kind of data set: Antitumor activity against Vincristine sensitive leukemia P-388 in mice (Test Example 4). The note with it: for ILS (%): P-388. It counts as in vivo, CDF1 mice. An excerpt:
(§1) Vincristine resistant or sensitive leukemia P-388 cells (1 x 10^6 cells) were intraperitoneally inoculated into CDF1 mice. Intraperitoneal administration of Rhizoxin and Vincristine was made on 1, 6 and 9 days after the tumor inoculation. The result is shown in Table 4 in terms of a percentage of an increase in the average life span of the treated mice over that of the control mice.

Data set [2] deals with Vincristine resistant leukemia P-388 cells (P-388/VCR). The data set can be described thus: Antitumor activity against Vincristine resistant leukemia P-388 in mice (Test Example 4). It counts as in vivo, CDF1 mice. The note with it: for ILS (%): P-388/VCR; for effectiveness against Vincristine resistant leukemia P-388: summary in words of Table 4.
Text: as §1

The nature of data set [3]: Toxicity by intraperitoneal injection into mice. To be noted: mouse, in vivo, ip, C3H/He mice, read-out: LDS 0 value. The protocol:
The toxicity of Rhizoxin was examined by the intraperitoneal injection of said compound into C3H/He mice, and as the LDS 0 value was above 5 mg/kg, it may be mentioned that the value is far above the dosage usually given in treatment.

A short description of the next data set: Solubility in solvents. It counts as physicochemical.
A further data set relates to rice seedling. The data set can be described thus: Induction of the characteristic symptoms of rice seedling blight. Type of data set: in vivo. To be noted: Oryza sativa; extremely low concentration at which the action is still seen; read-out: concentration that can induce the characteristic symptoms of rice seedling blight. As for the experimental part:
(§2) Rhizoxin has an action which can induce the characteristic symptoms of rice seedling blight, even at an extremely low concentration (10 ng/ml).

The next data set relates to plants other than rice. The data set can be described thus: Growth of the root of plants other than rice. The note with it: in vivo. As for the experimental part:
as §2

Another data set concerns plant pathogenic fungi. The data set can be described thus: Growth of plant pathogenic fungi. It counts as cell-based. As for the experimental part:
as §2

The test system of data set [4] is plant pathogenic bacteria. Kind of data set: Multiplication of plant pathogenic bacteria. The note with it: bacteria that are prokaryotes. Type of data set: cell-based. The protocol: as §2
Setting [5] is: 15 mcg/Kg/day intraperitoneally.
[6] abbreviates: 150 mcg/Kg/day intraperitoneally.
Setting [7] is: 0.25 mg/Kg/day intraperitoneally.
[8] abbreviates: 0.5 mg/Kg/day intraperitoneally.
[9] abbreviates: 1.0 mg/Kg/day intraperitoneally.
[10] abbreviates: 0.75 mg/Kg/day intraperitoneally on 1, 6 and 9 days after inoculation.
The mark [11] stands for this setting: 1.0 mg/Kg/day intraperitoneally on 1, 6 and 9 days after inoculation.
Where [12] appears, read: 1.5 mg/Kg/day intraperitoneally on 1, 6 and 9 days after inoculation.
Where [13] appears, read: 2.0 mg/Kg/day intraperitoneally on 1, 6 and 9 days after inoculation.

Where only a bound is given, the exact number is not on record here.

`CO[C@@H](/C(C)=C/C=C/C(C)=C/c1coc(C)n1)[C@@H](C)[C@@H]1C[C@H](O)[C@@]2(C)O[C@@H]2/C=C/[C@@H](C)[C@H]2C[C@H](CC(=O)O2)C[C@@H]2O[C@H]2C(=O)O1` [Rhizoxin]: the results for the “Average life span” value in data set [1] (setting [5]) and in data set [1] (setting [6]) were 31.8 days and 47.8 days, respectively. The “T/C (%)” value was found to be 185% in [1] (setting [5]) and 278% in data set [1] (setting [6]). The figures for the “Change in body weight (g) (day 1-7)” value in the data set on Leukemia L-1210 cells (setting [7]), in the data set on Leukemia L-1210 cells (setting [8]) and in the data set with Leukemia L-1210 cells (setting [9]) were “+0.4 g”, -0.7 g and -2.9 g, respectively. In addition, the “ILS (%)” value in the data set on Leukemia L-1210 cells (setting [7]) is given as 43%; in the data set with Leukemia L-1210 cells (setting [8]), 67%; with Leukemia L-1210 cells (setting [9]) it was 81%; in the data set with Leukemia L-1210 cells (2.0 mg/Kg/day intraperitoneally) it was “toxic”; in the data set on leukemia P-388 cells (0.5 mg/Kg/day intraperitoneally on 1, 6 and 9 days after inoculation), 46.2%; in the data set with leukemia P-388 cells (setting [10]) it was 65.6%. In addition, the “ILS (%)” value with leukemia P-388 cells (setting [11]) is 82.9%; in the data set on leukemia P-388 cells (setting [12]), 123.7%; in the data set with leukemia P-388 cells (3.0 mg/Kg/day intraperitoneally on 1, 6 and 9 days after inoculation), “toxic”; in data set [2] (setting [10]) it was 28.2%; in data set [2] (setting [11]), 35.9%; in data set [2] (setting [12]) it was 57.3%. Besides, the “ILS (%)” value in data set [2] (setting [13]) was 61.2%; in [2] (4.0 mg/Kg/day intraperitoneally on 1, 6 and 9 days after inoculation), “toxic”. Moreover, the “Tumor growth inhibition (%)” value was determined as 38% with B-16 melanoma (setting [7]), 68% with B-16 melanoma (setting [8]) and 62% in the data set on B-16 melanoma (setting [9]). Besides, the “effectiveness against leukemia P-388” value with leukemia P-388 cells (summary in words of Table 4) is recorded as “effective”. Moreover, the “effectiveness against Vincristine resistant leukemia P-388” value in data set [2] is “clearly effective”. For the same compound, in [3], the LD50 was greater than 5 mg/kg. Also, the Solubility in solvents result in the data set “Solubility in solvents” (benzene, chloroform, acetone, alcohol, etc.) is reported as “Easily soluble”; in “Solubility in solvents” (water, n-hexane), “sparingly soluble”. Further, the minimal effective concentration in the data set on rice seedling came to 0.01 µg/mL. Moreover, the “action on the growth of the root of the plants other than rice” value with plants other than rice is “check the growth of the root”. Also, in the data set with plant pathogenic fungi, the “action on the growth of plant pathogenic fungi” value is “inhibits the growth”. Moreover, in [4], the “action on the multiplication of the plant pathogenic bacteria” value is “no recognizable action”.
`CC[C@]1(O)C[C@H]2CN(CCc3c([nH]c4ccccc34)[C@@](C(=O)OC)(c3cc4c(cc3OC)N(C=O)[C@H]3[C@@](O)(C(=O)OC)[C@H](OC(C)=O)[C@]5(CC)C=CCN6CC[C@]43[C@@H]65)C2)C1` [Vincristine, reference compound]: the “ILS (%)” value in [2] (setting [11]) was 6.8%; in data set [2] (setting [13]) it was “toxic”. Also, in data set [2], the “effectiveness against Vincristine resistant leukemia P-388” value is “not affected”.
